Source: patent publication US5162354A, “3-halo-5-halomethyl-2-oxazolidinones and their use as microbicides” (Buckman Laboratories International, Inc., priority 1991, dated 1992)
≈ marks a conversion by molar mass, not a printed value. Read-outs that look alike come from different tables or passages of the source.

Columns and labels:
Type in all cases: cell-based
[1] = tested on: Streptococcus faecalis; test: AOAC Germicidal and Detergent Sanitizing Action of Disinfectants (Streptococcus faecalis)
Description: This test is conducted according to AOAC methods described in AOAC Official Methods of Analysis (1984) p 70. This test is suitable for chemicals that can be permitted for use in sanitizing precleaned non-porous food contact surfaces. This test also determines the effectiveness of compounds tested in hard water. Most of the detergents/sanitizers available in the market become ineffective in the presence of hard water, i.e. water containing calcium and/or magnesium ions. A water hardness value of 400 ppm was chosen because it is considered to be the highest hardness value for tap water in the United States.

[2] = tested on: Pseudomonas aeruginosa; test: AOAC Disinfectant Swimming Pool Assay (Pseudomonas aeruginosa); conditions: 10 min, contact time 10 minutes, read-out: MIC (Minimum inhibitory concentration required to inhibit microorganisms)
Description: (§1) This example was based on the procedure described in AOAC (Association of Official Analytical Chemists) Official Methods of Analysis (1986) pp 75-77. The results obtained by this method are suitable for presumptive evidence of acceptability of products for disinfecting swimming pool water. The results obtained for Compound 1 in a contact time of 10 minutes are noted in Table IV.

[3] = tested on: Klebsiella pneumonia; test: AOAC Disinfectant Swimming Pool Assay (Klebsiella pneumonia); conditions: Klebsiella pneumoniae, 10 min, read-out: MIC (Minimum inhibitory concentration required to inhibit microorganisms)
Description: as §1

[4] = tested on: mixture of Staphylococcus aureus, Enterobacter aerogenes and Pseudomonas aeruginosa; test: Long-term effectiveness in water as disinfectant, basal salts method, mixture of test organisms; conditions: for activity maintained (percent kill): up to three days post-preparation in water, short contact (up to 10 min)
Description: In order to test the effectiveness of the compounds of the present invention over a period of 15 days, the following experiment was conducted using Compound 1.
The basal salts method described in U.S. Pat. No. 2,881,070 at column 5, beginning at line 12 and extending to column 6, line 53 was performed at two different pH values and percent kills were obtained with a mixture of test organisms (Staphylococcus aureus, Enterobacter aerogenes and Pseudomonas aeruginosa). […] At 80 ppm, prolonged sanitizing ability is maintained (99% or greater) with prolonged exposure times (24 hours contact through 15 […] post-preparation in water).
^a Control indicates the population of the test organism and is used
to make sure there is vigorous growth and to calculate % kills.

[5] = tested on: Escherichia coli; test: AOAC Disinfectant Swimming Pool Assay (Escherichia coli); conditions: 10 min, contact time 10 minutes, read-out: MIC (Minimum inhibitory concentration required to inhibit microorganisms)
Description: as §1

O=C1OC(CCl)CN1Br (stereo not shown) [Compound 1, 3-Bromo-5-chloromethyl-2-oxazolidinone]
MIC ([1]; Enterococcus faecalis, Soft Water, read-out: Minimum inhibitory concentration required to inhibit microorganisms): 80 µg/mL (≈ 373 µM)
Minimum inhibitory concentration required to inhibit microorganisms ([1]; Hard Water (400 ppm calcium carbonate)): 80 parts per million (w/v)
MIC [2]: 100 µg/mL (≈ 466 µM)
MIC [3]: 100 µg/mL (≈ 466 µM)
killing at 40 ppm ([4]; 10 min, pH 6, Day 1 after preparation in soft water, pH 6.0, 10 min contact, read-out: % Reduction (Kill)): 100%
killing at 80 ppm ([4]; 10 min, pH 6, Day 1 after preparation in soft water, 80 ppm, pH 6.0, 10 min contact, read-out: % Reduction (Kill)): 100%
killing at 40 ppm ([4]; 10 min, pH 6, Day 2 after preparation in soft water, pH 6.0, 10 min contact, read-out: % Reduction (Kill)): 100%
killing at 80 ppm ([4]; 10 min, pH 6, Day 2 after preparation in soft water, 80 ppm, pH 6.0, 10 min contact, read-out: % Reduction (Kill)): 100%
killing at 40 ppm ([4]; 10 min, pH 6, Day 3 after preparation in soft water, pH 6.0, 10 min contact, read-out: % Reduction (Kill)): 100%
killing at 80 ppm ([4]; 10 min, pH 6, Day 3 after preparation in soft water, 80 ppm, pH 6.0, 10 min contact, read-out: % Reduction (Kill)): 100%
killing at 40 ppm ([4]; 10 min, pH 6, Day 4 after preparation in soft water, pH 6.0, 10 min contact, read-out: % Reduction (Kill)): 38.8%
killing at 80 ppm ([4]; 10 min, pH 6, Day 4 after preparation in soft water, 80 ppm, pH 6.0, 10 min contact, read-out: % Reduction (Kill)): 54.3%
killing at 40 ppm ([4]; 10 min, pH 6, Day 5 after preparation in soft water, pH 6.0, 10 min contact, read-out: % Reduction (Kill)): 26.8%
killing at 80 ppm ([4]; 10 min, pH 6, Day 5 after preparation in soft water, 80 ppm, pH 6.0, 10 min contact, read-out: % Reduction (Kill)): 41.4%
killing at 40 ppm ([4]; 10 min, pH 6, Day 14 after preparation in soft water, pH 6.0, 10 min contact, read-out: % Reduction (Kill)): 40%
killing at 80 ppm ([4]; 10 min, pH 6, Day 14 after preparation in soft water, 80 ppm, pH 6.0, 10 min contact, read-out: % Reduction (Kill)): 28.7%
killing at 40 ppm ([4]; 10 min, pH 6, Day 15 after preparation in soft water, pH 6.0, 10 min contact, read-out: % Reduction (Kill)): 39.3%
killing at 80 ppm ([4]; 10 min, pH 6, Day 15 after preparation in soft water, 80 ppm, pH 6.0, 10 min contact, read-out: % Reduction (Kill)): 13.1%
killing at 40 ppm ([4]; 10 min, pH 8, Day 1 after preparation in soft water, pH 8.0, 10 min contact, read-out: % Reduction (Kill)): 100%
killing at 80 ppm ([4]; 10 min, pH 8, Day 1 after preparation in soft water, 80 ppm, pH 8.0, 10 min contact, read-out: % Reduction (Kill)): 100%
killing at 40 ppm ([4]; 10 min, pH 8, Day 2 after preparation in soft water, pH 8.0, 10 min contact, read-out: % Reduction (Kill)): 100%
killing at 80 ppm ([4]; 10 min, pH 8, Day 2 after preparation in soft water, 80 ppm, pH 8.0, 10 min contact, read-out: % Reduction (Kill)): 100%
killing at 40 ppm ([4]; 10 min, pH 8, Day 3 after preparation in soft water, pH 8.0, 10 min contact, read-out: % Reduction (Kill)): 100%
killing at 80 ppm ([4]; 10 min, pH 8, Day 3 after preparation in soft water, 80 ppm, pH 8.0, 10 min contact, read-out: % Reduction (Kill)): 100%
killing at 40 ppm ([4]; 10 min, pH 8, Day 4 after preparation in soft water, pH 8.0, 10 min contact, read-out: % Reduction (Kill)): 34.2%
killing at 80 ppm ([4]; 10 min, pH 8, Day 4 after preparation in soft water, 80 ppm, pH 8.0, 10 min contact, read-out: % Reduction (Kill)): 46%
killing at 40 ppm ([4]; 10 min, pH 8, Day 5 after preparation in soft water, pH 8.0, 10 min contact, read-out: % Reduction (Kill)): 51.8%
killing at 80 ppm ([4]; 10 min, pH 8, Day 5 after preparation in soft water, 80 ppm, pH 8.0, 10 min contact, read-out: % Reduction (Kill)): 51.8%
killing at 40 ppm ([4]; 10 min, pH 8, Day 14 after preparation in soft water, pH 8.0, 10 min contact, read-out: % Reduction (Kill)): 69.5%
killing at 80 ppm ([4]; 10 min, pH 8, Day 14 after preparation in soft water, 80 ppm, pH 8.0, 10 min contact, read-out: % Reduction (Kill)): 83.8%
killing at 40 ppm ([4]; 10 min, pH 8, Day 15 after preparation in soft water, pH 8.0, 10 min contact, read-out: % Reduction (Kill)): 68.6%
killing at 80 ppm ([4]; 10 min, pH 8, Day 15 after preparation in soft water, 80 ppm, pH 8.0, 10 min contact, read-out: % Reduction (Kill)): 70.2%
killing at 40 ppm ([4]; 24 h, pH 6, Day 1 after preparation in soft water, pH 6.0, 24 hours contact, read-out: % Reduction (Kill)): 100%
killing at 80 ppm ([4]; 24 h, pH 6, Day 1 after preparation in soft water, 80 ppm, pH 6.0, 24 hours contact, read-out: % Reduction (Kill)): 100%
killing at 40 ppm ([4]; 24 h, pH 6, Day 2 after preparation in soft water, pH 6.0, 24 hours contact, read-out: % Reduction (Kill)): 100%
killing at 80 ppm ([4]; 24 h, pH 6, Day 2 after preparation in soft water, 80 ppm, pH 6.0, 24 hours contact, read-out: % Reduction (Kill)): 100%
killing at 40 ppm ([4]; 24 h, pH 6, Day 3 after preparation in soft water, pH 6.0, 24 hours contact, read-out: % Reduction (Kill)): 100%
killing at 80 ppm ([4]; 24 h, pH 6, Day 3 after preparation in soft water, 80 ppm, pH 6.0, 24 hours contact, read-out: % Reduction (Kill)): 100%
killing at 40 ppm ([4]; 24 h, pH 6, Day 4 after preparation in soft water, pH 6.0, 24 hours contact, read-out: % Reduction (Kill)): 99.6%
killing at 80 ppm ([4]; 24 h, pH 6, Day 4 after preparation in soft water, 80 ppm, pH 6.0, 24 hours contact, read-out: % Reduction (Kill)): 99.9%
killing at 40 ppm ([4]; 24 h, pH 6, Day 5 after preparation in soft water, pH 6.0, 24 hours contact, read-out: % Reduction (Kill)): 91.8%
killing at 80 ppm ([4]; 24 h, pH 6, Day 5 after preparation in soft water, 80 ppm, pH 6.0, 24 hours contact, read-out: % Reduction (Kill)): 99.6%
killing at 40 ppm ([4]; 24 h, pH 6, Day 14 after preparation in soft water, pH 6.0, 24 hours contact, read-out: % Reduction (Kill)): 99.8%
killing at 80 ppm ([4]; 24 h, pH 6, Day 14 after preparation in soft water, 80 ppm, pH 6.0, 24 hours contact, read-out: % Reduction (Kill)): 100%
killing at 40 ppm ([4]; 24 h, pH 6, Day 15 after preparation in soft water, pH 6.0, 24 hours contact, read-out: % Reduction (Kill)): 96%
killing at 80 ppm ([4]; 24 h, pH 6, Day 15 after preparation in soft water, 80 ppm, pH 6.0, 24 hours contact, read-out: % Reduction (Kill)): 100%
killing at 40 ppm ([4]; 24 h, pH 8, Day 1 after preparation in soft water, pH 8.0, 24 hours contact, read-out: % Reduction (Kill)): 100%
killing at 80 ppm ([4]; 24 h, pH 8, Day 1 after preparation in soft water, 80 ppm, pH 8.0, 24 hours contact, read-out: % Reduction (Kill)): 100%
killing at 40 ppm ([4]; 24 h, pH 8, Day 2 after preparation in soft water, pH 8.0, 24 hours contact, read-out: % Reduction (Kill)): 100%
killing at 80 ppm ([4]; 24 h, pH 8, Day 2 after preparation in soft water, 80 ppm, pH 8.0, 24 hours contact, read-out: % Reduction (Kill)): 100%
killing at 40 ppm ([4]; 24 h, pH 8, Day 3 after preparation in soft water, pH 8.0, 24 hours contact, read-out: % Reduction (Kill)): 100%
killing at 80 ppm ([4]; 24 h, pH 8, Day 3 after preparation in soft water, 80 ppm, pH 8.0, 24 hours contact, read-out: % Reduction (Kill)): 100%
killing at 40 ppm ([4]; 24 h, pH 8, Day 4 after preparation in soft water, pH 8.0, 24 hours contact, read-out: % Reduction (Kill)): 98.7%
killing at 80 ppm ([4]; 24 h, pH 8, Day 4 after preparation in soft water, 80 ppm, pH 8.0, 24 hours contact, read-out: % Reduction (Kill)): 100%
killing at 40 ppm ([4]; 24 h, pH 8, Day 5 after preparation in soft water, pH 8.0, 24 hours contact, read-out: % Reduction (Kill)): 99.9%
killing at 80 ppm ([4]; 24 h, pH 8, Day 5 after preparation in soft water, 80 ppm, pH 8.0, 24 hours contact, read-out: % Reduction (Kill)): 99.9%
killing at 40 ppm ([4]; 24 h, pH 8, Day 14 after preparation in soft water, pH 8.0, 24 hours contact, read-out: % Reduction (Kill)): 99.5%
killing at 80 ppm ([4]; 24 h, pH 8, Day 14 after preparation in soft water, 80 ppm, pH 8.0, 24 hours contact, read-out: % Reduction (Kill)): 99.9%
killing at 40 ppm ([4]; 24 h, pH 8, Day 15 after preparation in soft water, pH 8.0, 24 hours contact, read-out: % Reduction (Kill)): 99.3%
killing at 80 ppm ([4]; 24 h, pH 8, Day 15 after preparation in soft water, 80 ppm, pH 8.0, 24 hours contact, read-out: % Reduction (Kill)): 100%
killing at 80 ppm ([4]; 24 h, read-out: prolonged sanitizing ability maintained (percent kill), 80 ppm, 24 hours contact, through 15 days post-preparation in water): ≥ 99%
activity maintained (percent kill) ([4]; pH 6): ≥ 99.99%
activity maintained (percent kill) ([4]; pH 8): ≥ 99.96%
MIC [5]: 80 µg/mL (≈ 373 µM)
